Reference: US12404262B2 (priority 2021, dated 2025)
In brackets after ≈: the same amount, converted by molar mass.

Legend:
[1] = 1.0% DMSO, 24-hour incubation at ambient temperature, maximum theoretical 100 μM; for pH 2 solubility: 0.1N HCl, first value of the cell; for pH 7 solubility: 1×PBS buffer (pH 7.4), second value of the cell
[2] = Solubility in simulated intestinal fluids (FaSSIF/FeSSIF); settings: 25 °C, thermodynamic from solid
[3] = fasted state simulated intestinal fluid (FaSSIF), fassif
[4] = fed state simulated intestinal fluid (FeSSIF), fessif

SMILES | pH 2 solubility [1] | pH 7 solubility [1] | solubility [2, 3] [µg/mL] | solubility [2, 4] [µg/mL]
CC(C)(C#Cc1ccc(-c2ccc(Cl)c3c(N(C(=O)N[C@@H](CCC(=O)O)C(=O)O)S(C)(=O)=O)nn(CC(F)(F)F)c23)c([C@H](Cc2cc(F)cc(F)c2)NC(=O)Cn2nc(C(F)(F)F)c3c2C(F)(F)[C@@H]2C[C@H]32)n1)S(C)(=O)=O [Compound 68, ((4-chloro-7-(2-((S)-1-(2-((3bS,4aR)-5,5-difluoro-3-(trifluoromethyl)-3b,4,4a,5-tetrahydro-1H-cyclopropa[3,4]cyclopenta[1,2-c]pyrazol-1-yl)acetamido)-2-(3,5-difluorophenyl)ethyl)-6-(3-methyl-3-(methylsulfonyl)but-1-yn-1-yl)pyridin-3-yl)-1-(2,2,2-trifluoroethyl)-1H-indazol-3-yl)(methylsulfonyl)carbamoyl)-L-glutamic acid] | 1 μM | 18 μM | 700 (≈ 613 µM) | 246 (≈ 216 µM)
CC(C)(C#Cc1ccc(-c2ccc(Cl)c3c(N(C(=O)N[C@@H](CC(=O)O)C(=O)O)S(C)(=O)=O)nn(CC(F)(F)F)c23)c([C@H](Cc2cc(F)cc(F)c2)NC(=O)Cn2nc(C(F)(F)F)c3c2C(F)(F)[C@@H]2C[C@H]32)n1)S(C)(=O)=O [Compound 69, ((4-chloro-7-(2-((S)-1-(2-((3bS,4aR)-5,5-difluoro-3-(trifluoromethyl)-3b,4,4a,5-tetrahydro-1H-cyclopropa[3,4]cyclopenta[1,2-c]pyrazol-1-yl)acetamido)-2-(3,5-difluorophenyl)ethyl)-6-(3-methyl-3-(methylsulfonyl)but-1-yn-1-yl)pyridin-3-yl)-1-(2,2,2-trifluoroethyl)-1H-indazol-3-yl)(methylsulfonyl)carbamoyl)-L-aspartic acid] | 1 μM | 81 μM | 1580 (≈ 1400 µM) | 247 (≈ 219 µM)
CC(C)(C#Cc1ccc(-c2ccc(Cl)c3c(N(C(=O)N(CCCC(=O)O)CCNC(=O)OCOP(=O)(O)O)S(C)(=O)=O)nn(CC(F)(F)F)c23)c([C@H](Cc2cc(F)cc(F)c2)NC(=O)Cn2nc(C(F)(F)F)c3c2C(F)(F)[C@@H]2C[C@H]32)n1)S(C)(=O)=O [Compound 82] | 2 μM | 100 μM | 2680 (≈ 2070 µM) | 1800 (≈ 1390 µM)
CC(C)(C#Cc1ccc(-c2ccc(Cl)c3c(N(C(=O)OCOP(=O)(O)O)S(C)(=O)=O)nn(CC(F)(F)F)c23)c([C@H](Cc2cc(F)cc(F)c2)NC(=O)Cn2nc(C(F)(F)F)c3c2C(F)(F)[C@@H]2C[C@H]32)n1)S(C)(=O)=O [Compound 90, (phosphonooxy)methyl (4-chloro-7-(2-((S)-1-(2-((3bS,4aR)-5,5-difluoro-3-(trifluoromethyl)-3b,4,4a,5-tetrahydro-1H-cyclopropa[3,4]cyclopenta[1,2-c]pyrazol-1-yl)acetamido)-2-(3,5-difluorophenyl)ethyl)-6-(3-methyl-3-(methylsulfonyl)but-1-yn-1-yl)pyridin-3-yl)-1-(2,2,2-trifluoroethyl)-1H-indazol-3-yl)(methylsulfonyl)carbamate] | 1 μM | 48 μM | 2 (≈ 1.78 µM) | 3 (≈ 2.67 µM)
CC(C)(C#Cc1ccc(-c2ccc(Cl)c3c(N(C(=O)OCC(=O)OCOP(=O)(O)O)S(C)(=O)=O)nn(CC(F)(F)F)c23)c([C@H](Cc2cc(F)cc(F)c2)NC(=O)Cn2nc(C(F)(F)F)c3c2C(F)(F)[C@@H]2C[C@H]32)n1)S(C)(=O)=O [Compound 94, (phosphonooxy)methyl 2-(((4-chloro-7-(2-((S)-1-(2-((3bS,4aR)-5,5-difluoro-3-(trifluoromethyl)-3b,4,4a,5-tetrahydro-1H-cyclopropa[3,4]cyclopenta[1,2-c]pyrazol-1-yl)acetamido)-2-(3,5-difluorophenyl)ethyl)-6-(3-methyl-3-(methylsulfonyl)but-1-yn-1-yl)pyridin-3-yl)-1-(2,2,2-trifluoroethyl)-1H-indazol-3-yl)(methylsulfonyl)carbamoyl)oxy)acetate] | <1/1 μM | <1/1 μM | 481 (≈ 408 µM) | 189 (≈ 160 µM)
CC(C)(C#Cc1ccc(-c2ccc(Cl)c3c(N(C(=O)OCCCP(=O)(O)O)S(C)(=O)=O)nn(CC(F)(F)F)c23)c([C@H](Cc2cc(F)cc(F)c2)NC(=O)Cn2nc(C(F)(F)F)c3c2C(F)(F)[C@@H]2C[C@H]32)n1)S(C)(=O)=O [Compound 112, (3-(((4-chloro-7-(2-((S)-1-(2-((3bS,4aR)-5,5-difluoro-3-(trifluoromethyl)-3b,4,4a,5-tetrahydro-1H-cyclopropa[3,4]cyclopenta[1,2-c]pyrazol-1-yl)acetamido)-2-(3,5-difluorophenyl)ethyl)-6-(3-methyl-3-(methylsulfonyl)but-1-yn-1-yl)pyridin-3-yl)-1-(2,2,2-trifluoroethyl)-1H-indazol-3-yl)(methylsulfonyl)carbamoyl)oxy)propyl)phosphonic acid] | 1 μM | 77 μM | 778 (≈ 686 µM) | 1250 (≈ 1100 µM)
CC(C)(C#Cc1ccc(-c2ccc(Cl)c3c(N(C(=O)OCCCC(=O)O)S(C)(=O)=O)nn(CC(F)(F)F)c23)c([C@H](Cc2cc(F)cc(F)c2)NC(=O)Cn2nc(C(F)(F)F)c3c2C(F)(F)[C@@H]2C[C@H]32)n1)S(C)(=O)=O [Compound 113] | 1 μM | 5 μM | 5 (≈ 4.55 µM) | 8 (≈ 7.28 µM)

More lines, now with the values ahead:

pH 2 solubility [1] | pH 7 solubility [1] | solubility [2, 3] [µg/mL] | solubility [2, 4] [µg/mL] | SMILES
6 μM | 100 μM | 7550 (≈ 5900 µM) | 1720 (≈ 1350 µM) | CC(C)(C#Cc1ccc(-c2ccc(Cl)c3c(N(C(=O)N(CCNC(=O)OCOP(=O)(O)O)CCC(=O)O)S(C)(=O)=O)nn(CC(F)(F)F)c23)c([C@H](Cc2cc(F)cc(F)c2)NC(=O)Cn2nc(C(F)(F)F)c3c2C(F)(F)[C@@H]2C[C@H]32)n1)S(C)(=O)=O [Compound 80, 3-(3-(4-chloro-7-(2-((S)-1-(2-((3bS,4aR)-5,5-difluoro-3-(trifluoromethyl)-3b,4,4a,5-tetrahydro-1H-cyclopropa[3,4]cyclopenta[1,2-c]pyrazol-1-yl)acetamido)-2-(3,5-difluorophenyl)ethyl)-6-(3-methyl-3-(methylsulfonyl)but-1-yn-1-yl)pyridin-3-yl)-1-(2,2,2-trifluoroethyl)-1H-indazol-3-yl)-3-(methylsulfonyl)-1-(2-((((phosphonooxy)methoxy)carbonyl)amino)ethyl)ureido)propanoic acid]
1 μM | 100 μM | 2020 (≈ 1560 µM) | 1470 (≈ 1130 µM) | CN(CCN(CCC(=O)O)C(=O)OCOP(=O)(O)O)C(=O)N(c1nn(CC(F)(F)F)c2c(-c3ccc(C#CC(C)(C)S(C)(=O)=O)nc3[C@H](Cc3cc(F)cc(F)c3)NC(=O)Cn3nc(C(F)(F)F)c4c3C(F)(F)[C@@H]3C[C@H]43)ccc(Cl)c12)S(C)(=O)=O [Compound 86, 3-((2-(3-(4-chloro-7-(2-((S)-1-(2-((3bS,4aR)-5,5-difluoro-3-(trifluoromethyl)-3b,4,4a,5-tetrahydro-1H-cyclopropa[3,4]cyclopenta[1,2-c]pyrazol-1-yl)acetamido)-2-(3,5-difluorophenyl)ethyl)-6-(3-methyl-3-(methylsulfonyl)but-1-yn-1-yl)pyridin-3-yl)-1-(2,2,2-trifluoroethyl)-1H-indazol-3-yl)-1-methyl-3-(methylsulfonyl)ureido)ethyl)(((phosphonooxy)methoxy)carbonyl)amino)propanoic acid]
1 μM | 18 μM | > 2480 | 299 (≈ 236 µM) | CN(C(=O)N(c1nn(CC(F)(F)F)c2c(-c3ccc(C#CC(C)(C)S(C)(=O)=O)nc3[C@H](Cc3cc(F)cc(F)c3)NC(=O)Cn3nc(C(F)(F)F)c4c3C(F)(F)[C@@H]3C[C@H]43)ccc(Cl)c12)S(C)(=O)=O)[C@@H](CCC(=O)O)C(=O)OCOP(=O)(O)O [Compound 87, (S)-4-(3-(4-chloro-7-(2-((S)-1-(2-((3bS,4aR)-5,5-difluoro-3-(trifluoromethyl)-3b,4,4a,5-tetrahydro-1H-cyclopropa[3,4]cyclopenta[1,2-c]pyrazol-1-yl)acetamido)-2-(3,5-difluorophenyl)ethyl)-6-(3-methyl-3-(methylsulfonyl)but-1-yn-1-yl)pyridin-3-yl)-1-(2,2,2-trifluoroethyl)-1H-indazol-3-yl)-1-methyl-3-(methylsulfonyl)ureido)-5-oxo-5-((phosphonooxy)methoxy)pentanoic acid]
1 μM | 15 μM | 841 (≈ 672 µM) | 589 (≈ 471 µM) | CN(C(=O)N(c1nn(CC(F)(F)F)c2c(-c3ccc(C#CC(C)(C)S(C)(=O)=O)nc3[C@H](Cc3cc(F)cc(F)c3)NC(=O)Cn3nc(C(F)(F)F)c4c3C(F)(F)[C@@H]3C[C@H]43)ccc(Cl)c12)S(C)(=O)=O)[C@@H](CC(=O)O)C(=O)OCOP(=O)(O)O [Compound 88, (S)-3-(3-(4-chloro-7-(2-((S)-1-(2-((3bS,4aR)-5,5-difluoro-3-(trifluoromethyl)-3b,4,4a,5-tetrahydro-1H-cyclopropa[3,4]cyclopenta[1,2-c]pyrazol-1-yl)acetamido)-2-(3,5-difluorophenyl)ethyl)-6-(3-methyl-3-(methylsulfonyl)but-1-yn-1-yl)pyridin-3-yl)-1-(2,2,2-trifluoroethyl)-1H-indazol-3-yl)-1-methyl-3-(methylsulfonyl)ureido)-4-oxo-4-((phosphonooxy)methoxy)butanoic acid]
